What was measured:
[1] = molecular target: T1, Aldo-keto reductase family 1 member A1 (Homo sapiens, UniProt P14550); assay: Inhibition of human recombinant AKR1A1 expressed in Escherichia coli BL21 cells using D-glucuronate as substrate by spectrophotometry
T1 sequence (P14550 whole entry): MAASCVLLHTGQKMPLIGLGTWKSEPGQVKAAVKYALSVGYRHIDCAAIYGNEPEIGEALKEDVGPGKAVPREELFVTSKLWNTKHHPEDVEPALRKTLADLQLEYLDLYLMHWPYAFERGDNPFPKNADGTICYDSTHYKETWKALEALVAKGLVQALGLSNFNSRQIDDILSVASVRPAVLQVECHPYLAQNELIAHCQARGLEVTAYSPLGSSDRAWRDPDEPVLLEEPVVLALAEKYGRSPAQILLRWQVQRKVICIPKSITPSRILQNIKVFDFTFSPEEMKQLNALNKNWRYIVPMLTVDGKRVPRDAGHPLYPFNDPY

[2] = molecular target: T2, Aldo-keto reductase family 1 member B1 (Homo sapiens, UniProt P15121); assay: Inhibition of human recombinant AKR1B1 expressed in Escherichia coli BL21 cells using pyridine-3-aldehyde as substrate by spectrophotometry
[3] = molecular target: Aldo-keto reductase family 1 member B10 (Homo sapiens, UniProt O60218); assay: Inhibition of recombinant N-His6-tagged AKR1B10 expressed in Escherichia coli BL21 cells using pyridine-3-aldehyde as substrate by spectrophotometry
Sequence of Aldo-keto reductase family 1 member B10 (O60218 whole entry): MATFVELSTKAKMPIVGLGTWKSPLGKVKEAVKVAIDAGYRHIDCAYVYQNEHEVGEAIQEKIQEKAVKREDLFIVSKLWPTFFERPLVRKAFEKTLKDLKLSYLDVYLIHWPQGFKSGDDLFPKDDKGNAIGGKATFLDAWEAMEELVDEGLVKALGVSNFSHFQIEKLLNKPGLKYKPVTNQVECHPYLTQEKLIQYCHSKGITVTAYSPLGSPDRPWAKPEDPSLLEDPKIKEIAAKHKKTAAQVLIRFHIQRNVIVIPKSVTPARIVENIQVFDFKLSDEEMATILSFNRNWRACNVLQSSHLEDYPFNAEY

[4] = molecular target: T2, Aldo-keto reductase family 1 member B1
Description: Noncompetitive inhibition of human recombinant AKR1B1 using pyridine-3-aldehyde as substrate by Lineweaver-Burk plot analysis

| SMILES | IC50 [1] | IC50 [2] | IC50 [3] | Kii [4] | Kis [4] |
| --- | --- | --- | --- | --- | --- |
| O=C(O)Cn1c2c(c3cc(Cl)ccc31)CCN(Cc1ccccc1)C2=S | 15000 nM | 350 nM | 1400 nM | – | – |
| O=C(O)Cn1c2c(c3c(Cl)cc(Cl)cc31)CCN(Cc1ccccc1)C2=S | 10000 nM | 190 nM | 6100 nM | – | – |
| O=C(O)Cn1c2c(c3c(F)cc(F)cc31)CCN(Cc1ccccc1)C2=S | 4700 nM | 1300 nM | 480 nM | – | – |
| O=C(O)Cn1c2c(c3ccccc31)CCN(Cc1ccc(C(F)(F)F)cc1)C2=S | – | 14000 nM | 3800 nM | – | – |
| O=C(O)Cn1c2c(c3cc(I)ccc31)CCN(Cc1ccccc1)C2=S | 11000 nM | 190 nM | 1400 nM | – | – |
| O=C(O)Cn1c2c(c3ccccc31)CCN(c1ccccc1)C2=S | – | 31000 nM | 21000 nM | – | – |
| O=C(O)Cn1c2c(c3cc(F)ccc31)CCN(Cc1ccc(Br)cc1F)C2=S | – | 1700 nM | 280 nM | – | – |
| CC(C)c1ccc2c(c1)c1c(n2CC(=O)O)C(=S)N(Cc2ccccc2)CC1 | 16000 nM | 200 nM | 3400 nM | – | – |
| O=C(O)Cn1c2c(c3ccc(Cl)cc31)CCN(Cc1ccccc1)C2=S | 21000 nM | 240 nM | 1400 nM | – | – |
| O=C(O)Cn1c2c(c3ccccc31)CCN(Cc1ccc(Br)cc1F)C2=S | – | 4200 nM | 680 nM | – | – |
| O=C(O)Cn1c2c(c3cc(F)ccc31)CCN(Cc1ccccc1)C2=S | 19000 nM | 230 nM | 3300 nM | – | – |
| O=C(O)Cn1c2c(c3ccccc31)CCN(Cc1ccccc1)C2=S | 9500 nM | 220 nM | 5100 nM | – | – |
| O=C(O)Cn1c2c(c3ccccc31)CCN(Cc1ccc(Br)cc1)C2=S | 14000 nM | 5900 nM | 850 nM | – | – |
| O=C(O)Cn1c2c(c3c(F)cc(F)cc31)CCN(CCc1ccccc1)C2=S | – | 1800 nM | 400 nM | – | – |
| O=C(O)Cn1c2c(c3cc(C(=O)O)ccc31)CCN(Cc1ccccc1)C2=S | 53000 nM | 170 nM | 40000 nM | 220 nM | 55 nM |
| O=C(O)Cn1c2c(c3cc(O)ccc31)CCN(Cc1ccccc1)C2=S | – | 200 nM | 1900 nM | – | – |
| COc1ccc2c(c1)c1c(n2CC(=O)O)C(=S)N(Cc2ccccc2)CC1 | 12000 nM | 150 nM | 2900 nM | 180 nM | 79 nM |
| O=C(O)Cn1c2c(c3cc(Br)ccc31)CCN(Cc1ccccc1)C2=S | 11000 nM | 320 nM | 1400 nM | – | – |
| O=C(O)Cn1c2c(c3cc(F)ccc31)CCN(Cc1ccc(C(F)(F)F)cc1)C2=S | – | 10000 nM | 1600 nM | – | – |

Reference: ChEMBL document CHEMBL1944621, “Design, synthesis, and biological evaluation of novel (1-thioxo-1,2,3,4-tetrahydro-β-carbolin-9-yl)acetic acids as selective inhibitors for AKR1B1” (Bioorg Med Chem, 2012)
